Laboratory results published in the supplement of paper PMC10307832.

Tests used:
Assay in all cases: relative viability (nuclei count vs DMSO), 5 days (fraction); higher = more cells survive
Everolimus + Lapatinib = compound: CO[C@H]1C[C@@H]2CC[C@@H](C)[C@@](O)(O2)C(=O)C(=O)N2CCCC[C@H]2C(=O)O[C@H]([C@H](C)C[C@@H]2CC[C@@H](OCCO)[C@H](OC)C2)CC(=O)[C@H](C)/C=C(\C)[C@@H](O)[C@@H](OC)C(=O)[C@H](C)C[C@H](C)/C=C/C=C/C=C/1C [Everolimus] + CS(=O)(=O)CCNCc1ccc(-c2ccc3ncnc(Nc4ccc(OCc5cccc(F)c5)c(Cl)c4)c3c2)o1 [Lapatinib] (partner 2 µM)
Procedure, shortened: (§1)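 Lung cancer cell lines in 1536-well plates were dosed by pin tool the day after seeding, either with one drug alone or with a fixed anchor-drug dose plus five library-drug doses (not always all listed) in √10 steps. After 5 days, cells were fixed and their nuclei stained in one step (final 0.05% Triton X-100, 1% formaldehyde, 1 ug/ml Hoechst), then counted on 4× images. Relative viability is the nuclei count in treated wells divided by that in vehicle wells. Values are medians of duplicate plates.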

Everolimus + Crizotinib = compound: CO[C@H]1C[C@@H]2CC[C@@H](C)[C@@](O)(O2)C(=O)C(=O)N2CCCC[C@H]2C(=O)O[C@H]([C@H](C)C[C@@H]2CC[C@@H](OCCO)[C@H](OC)C2)CC(=O)[C@H](C)/C=C(\C)[C@@H](O)[C@@H](OC)C(=O)[C@H](C)C[C@H](C)/C=C/C=C/C=C/1C [Everolimus] + C[C@@H](Oc1cc(-c2cnn(C3CCNCC3)c2)cnc1N)c1c(Cl)ccc(F)c1Cl [Crizotinib] (partner 1 µM)
Procedure, shortened: as §1

Everolimus + Dasatinib = compound: CO[C@H]1C[C@@H]2CC[C@@H](C)[C@@](O)(O2)C(=O)C(=O)N2CCCC[C@H]2C(=O)O[C@H]([C@H](C)C[C@@H]2CC[C@@H](OCCO)[C@H](OC)C2)CC(=O)[C@H](C)/C=C(\C)[C@@H](O)[C@@H](OC)C(=O)[C@H](C)C[C@H](C)/C=C/C=C/C=C/1C [Everolimus] + Cc1nc(Nc2ncc(C(=O)Nc3c(C)cccc3Cl)s2)cc(N2CCN(CCO)CC2)n1 [Dasatinib] (partner 0.075 µM)
Procedure, shortened: as §1

Everolimus + Pemetrexed = compound: CO[C@H]1C[C@@H]2CC[C@@H](C)[C@@](O)(O2)C(=O)C(=O)N2CCCC[C@H]2C(=O)O[C@H]([C@H](C)C[C@@H]2CC[C@@H](OCCO)[C@H](OC)C2)CC(=O)[C@H](C)/C=C(\C)[C@@H](O)[C@@H](OC)C(=O)[C@H](C)C[C@H](C)/C=C/C=C/C=C/1C [Everolimus] + Nc1nc2[nH]cc(CCc3ccc(C(=O)N[C@@H](CCC(=O)O)C(=O)O)cc3)c2c(=O)[nH]1 [Pemetrexed] (partner 0.2 µM)
Procedure, shortened: as §1

Cell Line | relative viability (Everolimus + Lapatinib; first compound 0.01 µM) | relative viability (Everolimus + Lapatinib; first compound 0.03162 µM) | relative viability (Everolimus + Lapatinib; first compound 0.1 µM) | relative viability (Everolimus + Lapatinib; first compound 0.3162 µM) | relative viability (Everolimus + Lapatinib; first compound 1 µM) | relative viability (Everolimus + Crizotinib; first compound 0.01 µM) | relative viability (Everolimus + Crizotinib; first compound 0.03162 µM) | relative viability (Everolimus + Crizotinib; first compound 0.1 µM) | relative viability (Everolimus + Crizotinib; first compound 0.3162 µM) | relative viability (Everolimus + Crizotinib; first compound 1 µM) | relative viability (Everolimus + Dasatinib; first compound 0.01 µM) | relative viability (Everolimus + Dasatinib; first compound 0.03162 µM) | relative viability (Everolimus + Dasatinib; first compound 0.1 µM) | relative viability (Everolimus + Dasatinib; first compound 0.3162 µM) | relative viability (Everolimus + Dasatinib; first compound 1 µM) | relative viability (Everolimus + Pemetrexed; first compound 0.01 µM) | relative viability (Everolimus + Pemetrexed; first compound 0.03162 µM) | relative viability (Everolimus + Pemetrexed; first compound 0.1 µM) | relative viability (Everolimus + Pemetrexed; first compound 0.3162 µM) | relative viability (Everolimus + Pemetrexed; first compound 1 µM)
NCI-H2347 | 0.813 | 1.07 | 0.663 | 0.868 | 0.811 | 0.683 | 0.568 | 0.554 | 0.546 | 0.58 | 0.242 | 0.285 | 0.188 | 0.293 | 0.189 | 0.406 | 0.442 | 0.486 | 0.412 | 0.434
NCI-H838 | 0.517 | 0.535 | 0.48 | 0.439 | 0.625 | 0.581 | 0.548 | 0.416 | 0.525 | 0.357 | 0.262 | 0.243 | 0.265 | 0.274 | 0.333 | 0.229 | 0.213 | 0.241 | 0.228 | 0.222
NCI-H2023 | 0.604 | 0.456 | 0.378 | 0.616 | 0.314 | 0.433 | 0.388 | 0.368 | 0.395 | 0.312 | 0.343 | 0.301 | 0.243 | 0.239 | 0.222 | 0.18 | 0.174 | 0.201 | 0.19 | 0.142
201T | 0.911 | 1 | 0.852 | 0.882 | 0.938 | 0.945 | 0.984 | 0.926 | 0.962 | 0.977 | 0.592 | 0.595 | 0.521 | 0.547 | 0.519 | 0.365 | 0.383 | 0.32 | 0.307 | 0.317
NCI-H1915 | 0.903 | 0.904 | 0.877 | 0.826 | 0.88 | 0.849 | 0.784 | 0.798 | 0.711 | 0.753 | 0.285 | 0.231 | 0.208 | 0.247 | 0.206 | 0.484 | 0.481 | 0.469 | 0.499 | 0.432
NCI-H2009 | 0.853 | 0.782 | 0.441 | 0.878 | 0.877 | 0.693 | 0.856 | 0.612 | 0.646 | 0.763 | 0.214 | 0.218 | 0.225 | 0.244 | 0.215 | 0.986 | 0.98 | 0.927 | 0.848 | 0.771
BEN | 0.366 | 0.302 | 0.28 | 0.34 | 0.377 | 0.573 | 0.391 | 0.311 | 0.387 | 0.328 | 0.221 | 0.209 | 0.217 | 0.236 | 0.211 | 0.552 | 0.458 | 0.501 | 0.521 | 0.618
PC-14 | 0.231 | 0.226 | 0.22 | 0.192 | 0.234 | 0.983 | 0.936 | 0.942 | 0.908 | 0.741 | 0.23 | 0.168 | 0.216 | 0.237 | 0.177 | 0.176 | 0.186 | 0.181 | 0.184 | 0.184
SK-MES-1 | 0.358 | 0.384 | 0.326 | 0.384 | 0.325 | 0.871 | 0.689 | 0.689 | 0.644 | 0.608 | 0.357 | 0.339 | 0.398 | 0.346 | 0.331 | 0.839 | 0.826 | 0.825 | 0.827 | 0.741
NCI-H1355 | 0.471 | 0.44 | 0.363 | 0.53 | 0.436 | 0.524 | 0.462 | 0.46 | 0.426 | 0.438 | 0.436 | 0.402 | 0.315 | 0.334 | 0.316 | 0.747 | 0.553 | 0.521 | 0.502 | 0.486
NCI-H1975 | 0.788 | 0.669 | 0.669 | 0.762 | 0.676 | 0.924 | 0.774 | 0.921 | 0.876 | 0.783 | 0.305 | 0.264 | 0.222 | 0.298 | 0.183 | 0.37 | 0.343 | 0.353 | 0.345 | 0.339
LK-2 | 0.664 | 0.533 | 0.787 | 0.471 | 0.449 | 0.24 | – | 0.22 | 0.284 | 0.227 | 0.231 | – | 0.239 | 0.209 | 0.306 | 0.203 | 0.229 | 0.212 | 0.208 | 0.167
NCI-H661 | 0.358 | 0.428 | 0.341 | 0.276 | 0.299 | 1.1 | 1.07 | 0.977 | 0.837 | 0.814 | 0.694 | 0.56 | 0.575 | 0.615 | 0.472 | 0.805 | 0.763 | 0.863 | 0.793 | 0.664
HCC-366 | 0.89 | 1.11 | 0.994 | 0.992 | 0.589 | 0.433 | 0.441 | 0.526 | 0.295 | 0.372 | 0.459 | 0.593 | 0.477 | 0.46 | 0.354 | 0.339 | 0.307 | 0.284 | 0.216 | 0.173
HOP-62 | 0.646 | 0.569 | 0.533 | 0.659 | 0.782 | 0.934 | 0.58 | 0.556 | 0.583 | 0.637 | 0.394 | 0.424 | 0.352 | 0.382 | 0.387 | 0.326 | 0.401 | 0.337 | 0.375 | 0.338
